Reference: patent publication US12662465B2, “EGFR inhibitors” (Blueprint Medicines Corporation, priority 2021, dated 2026)
Like-named read-outs stand apart in the source and are kept apart here.

Legend:
[1] = molecular target: intracellular phosphorylation of EGFR (Tyr1068) in PC-9 cells (Ex19Del) (Homo sapiens, UniProt P00533, DEL746-750); assay: PC-9 pEGFR AlphaLISA assay; format: cell-based; settings: 4 hours compound incubation, read-out: Ext pEGFR_PC-9 Ex19Del IC50
EGFR L858R = molecular target: T1, EGFR L858R (Homo sapiens, UniProt P00533, L858R); assay: Biochemical EGFR inhibition assay (Caliper mobility shift), EGFR L858R; settings: read-out: Enz EGFR_L858R IC50
T1 construct: purchased SignalChem E10-122BG
T1 sequence (P00533 25-1210 L858R): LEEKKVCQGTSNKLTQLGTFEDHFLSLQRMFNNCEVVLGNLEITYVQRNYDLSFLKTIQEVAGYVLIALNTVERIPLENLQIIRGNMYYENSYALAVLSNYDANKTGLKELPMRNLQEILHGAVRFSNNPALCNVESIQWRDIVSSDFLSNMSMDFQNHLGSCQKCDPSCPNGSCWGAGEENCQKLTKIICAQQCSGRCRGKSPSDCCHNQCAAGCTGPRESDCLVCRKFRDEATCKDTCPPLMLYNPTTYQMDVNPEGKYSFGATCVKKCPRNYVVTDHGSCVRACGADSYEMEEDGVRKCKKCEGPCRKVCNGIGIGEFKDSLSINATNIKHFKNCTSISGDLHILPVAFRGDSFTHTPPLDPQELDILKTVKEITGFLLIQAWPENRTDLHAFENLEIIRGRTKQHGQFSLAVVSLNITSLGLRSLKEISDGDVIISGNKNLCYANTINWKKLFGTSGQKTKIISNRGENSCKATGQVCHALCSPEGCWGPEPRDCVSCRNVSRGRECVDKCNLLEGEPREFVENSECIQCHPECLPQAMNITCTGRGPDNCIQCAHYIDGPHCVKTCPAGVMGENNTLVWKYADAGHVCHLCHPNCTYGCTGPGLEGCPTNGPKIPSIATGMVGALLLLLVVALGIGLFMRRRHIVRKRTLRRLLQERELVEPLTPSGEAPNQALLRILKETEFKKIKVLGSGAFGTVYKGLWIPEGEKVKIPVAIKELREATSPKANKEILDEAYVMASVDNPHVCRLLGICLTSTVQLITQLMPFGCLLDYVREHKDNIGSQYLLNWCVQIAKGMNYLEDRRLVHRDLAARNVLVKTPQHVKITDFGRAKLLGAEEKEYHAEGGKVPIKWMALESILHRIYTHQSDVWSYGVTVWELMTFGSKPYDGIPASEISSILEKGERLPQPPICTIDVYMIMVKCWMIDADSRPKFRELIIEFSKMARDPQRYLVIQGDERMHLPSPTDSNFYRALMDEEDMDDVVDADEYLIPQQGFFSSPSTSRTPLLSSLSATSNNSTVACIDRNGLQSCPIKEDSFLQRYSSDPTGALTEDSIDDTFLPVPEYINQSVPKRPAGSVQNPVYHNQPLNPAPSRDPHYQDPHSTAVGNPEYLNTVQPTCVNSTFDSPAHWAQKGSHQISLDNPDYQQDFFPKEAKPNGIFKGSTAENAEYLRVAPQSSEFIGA

EGFR (d746-750) = molecular target: T2, EGFR (d746-750) (Homo sapiens, UniProt P00533, DEL746-750); assay: Biochemical EGFR inhibition assay (Caliper mobility shift), EGFR (d746-750); settings: read-out: Enz EGFR_Exon19-del746-750 IC50
T2 construct: purchased SignalChem E10-122JG
T2 sequence (P00533 with tags, fused parts or gaps DEL746-750 limits assumed): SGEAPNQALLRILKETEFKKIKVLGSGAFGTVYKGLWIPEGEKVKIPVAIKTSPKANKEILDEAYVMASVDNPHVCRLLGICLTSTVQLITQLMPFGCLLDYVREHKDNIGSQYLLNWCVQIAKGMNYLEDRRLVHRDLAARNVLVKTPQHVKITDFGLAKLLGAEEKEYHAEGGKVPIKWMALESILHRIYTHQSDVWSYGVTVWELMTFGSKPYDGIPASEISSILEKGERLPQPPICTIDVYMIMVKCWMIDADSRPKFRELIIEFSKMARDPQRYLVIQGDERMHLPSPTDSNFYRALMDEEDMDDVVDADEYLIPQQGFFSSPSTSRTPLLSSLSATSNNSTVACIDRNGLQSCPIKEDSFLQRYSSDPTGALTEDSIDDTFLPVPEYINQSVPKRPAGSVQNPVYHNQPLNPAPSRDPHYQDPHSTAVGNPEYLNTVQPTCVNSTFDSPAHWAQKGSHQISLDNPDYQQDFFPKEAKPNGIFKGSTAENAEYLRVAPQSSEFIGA

[2] = 1.0 mM ATP or ATP Km, room temperature (25° C.)

Sequence of intracellular phosphorylation of EGFR (Tyr1068) in PC-9 cells (Ex19Del) (P00533 with tags, fused parts or gaps DEL746-750): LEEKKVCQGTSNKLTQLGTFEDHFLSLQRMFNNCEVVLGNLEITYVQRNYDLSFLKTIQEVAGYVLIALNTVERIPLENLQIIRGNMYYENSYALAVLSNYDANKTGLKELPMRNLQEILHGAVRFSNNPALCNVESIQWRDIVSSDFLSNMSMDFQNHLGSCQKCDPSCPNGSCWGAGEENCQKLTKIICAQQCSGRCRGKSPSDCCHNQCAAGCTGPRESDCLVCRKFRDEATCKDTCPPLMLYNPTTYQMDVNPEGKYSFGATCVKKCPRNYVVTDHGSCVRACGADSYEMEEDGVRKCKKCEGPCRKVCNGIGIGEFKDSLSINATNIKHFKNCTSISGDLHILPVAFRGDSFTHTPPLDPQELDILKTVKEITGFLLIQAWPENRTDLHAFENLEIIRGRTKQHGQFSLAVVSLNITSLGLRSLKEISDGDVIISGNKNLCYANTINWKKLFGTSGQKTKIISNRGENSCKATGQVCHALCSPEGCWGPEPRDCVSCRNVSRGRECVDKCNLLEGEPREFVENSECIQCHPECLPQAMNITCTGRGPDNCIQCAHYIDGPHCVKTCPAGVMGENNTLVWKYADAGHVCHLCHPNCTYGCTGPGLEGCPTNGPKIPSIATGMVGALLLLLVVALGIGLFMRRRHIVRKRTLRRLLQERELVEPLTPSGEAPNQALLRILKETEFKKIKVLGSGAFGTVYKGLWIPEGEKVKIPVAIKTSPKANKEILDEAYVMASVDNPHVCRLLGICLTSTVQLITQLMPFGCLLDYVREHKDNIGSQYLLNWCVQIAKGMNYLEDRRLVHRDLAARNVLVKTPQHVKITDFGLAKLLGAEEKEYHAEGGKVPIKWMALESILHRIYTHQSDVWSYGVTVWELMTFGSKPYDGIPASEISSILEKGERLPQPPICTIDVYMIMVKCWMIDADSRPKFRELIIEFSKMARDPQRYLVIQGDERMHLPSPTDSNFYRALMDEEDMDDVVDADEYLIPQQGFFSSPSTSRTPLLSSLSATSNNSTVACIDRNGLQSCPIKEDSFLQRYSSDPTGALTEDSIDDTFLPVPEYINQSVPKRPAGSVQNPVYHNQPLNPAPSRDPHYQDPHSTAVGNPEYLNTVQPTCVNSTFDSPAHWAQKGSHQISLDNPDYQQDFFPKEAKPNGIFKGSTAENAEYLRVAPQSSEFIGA

| Structure (SMILES) | IC50 [1] [nM] | IC50 (EGFR L858R) [nM] | IC50 (EGFR (d746-750)) [nM] | IC50 (EGFR L858R; [2]) [nM] | IC50 (EGFR (d746-750); [2]) [nM] |
| --- | --- | --- | --- | --- | --- |
| CO[C@H]1CCN(c2cc3ncnc(Nc4ccc5ncccc5c4F)c3c(OC(C)CN(C)C)n2)C1 (stereo in doubt) [Example 77, 5—(((S)-1-(dimethylamino)propan-2-yl)oxy)-N-(5-fluoroquinolin-6-yl)-7-((S)-3-methoxypyrrolidin-1-yl)pyrido[4,3-d]pyrimidin-4-amine] | 10.1 to 50 | 10.1 to 50 | < 10 |  |  |
| C[C@H](CN(C)C)Oc1cc(-c2cnn(C)c2)cc2ncnc(Nc3ccc4ncccc4c3F)c12 [Example 6, (R)-5-((1-(dimethylamino)propan-2-yl)oxy)-N-(5-fluoroquinolin-6-yl)-7-(1-methyl-1H-pyrazol-4-yl)quinazolin-4-amine] | ≤ 10 | < 10 | < 10 |  |  |
| C[C@@H](Oc1cc(-c2cnn(C)c2)cc2ncnc(Nc3c(F)cc4ncccc4c3F)c12)C1COC1 [Example 8, (R)—N-(5,7-difluoroquinolin-6-yl)-7-(1-methyl-1H-pyrazol-4-yl)-5-(1-(oxetan-3-yl)ethoxy)quinazolin-4-amine] | ≤ 10 | < 10 | < 10 |  |  |
| C[C@H](CN(C)C)Oc1cc(-c2cnn(C)c2)cc2ncnc(Nc3cc(F)c4ncccc4c3F)c12 [Example 10, (R)—N-(5,8-difluoroquinolin-6-yl)-5-((1-(dimethylamino)propan-2-yl)oxy)-7-(1-methyl-1H-pyrazol-4-yl)quinazolin-4-amine] | ≤ 10 | < 10 | < 10 |  |  |
| C[C@H](CN(C)C)Oc1cc(-c2cnn(C)c2)cc2ncnc(Nc3ccc4nnccc4c3)c12 [Example 11, (R)—N-(5-((1-(dimethylamino)propan-2-yl)oxy)-7-(1-methyl-1H-pyrazol-4-yl)quinazolin-4-yl)cinnolin-6-amine] | > 50.1 | > 50.1 | 10.1 to 50 |  |  |
| C[C@H](CN(C)C)Oc1cc(-c2cnn(C)c2)cc2ncnc(Nc3ccc4cccnc4c3)c12 [Example 13, (R)-5-((1-(dimethylamino)propan-2-yl)oxy)-7-(1-methyl-1H-pyrazol-4-yl)-N-(quinolin-7-yl)quinazolin-4-amine] | ≤ 10 | < 10 | < 10 |  |  |
| C[C@H](CN(C)C)Oc1cc(-c2cnn(C)c2)cc2ncnc(Nc3cnc4ccccc4c3)c12 [Example 14, (R)-5-((1-(dimethylamino)propan-2-yl)oxy)-7-(1-methyl-1H-pyrazol-4-yl)-N-(quinolin-3-yl)quinazolin-4-amine] | ≤ 10 | < 10 | < 10 |  |  |
| CC[C@H](CN(C)C)Oc1cc(-c2cnn(C)c2)cc2ncnc(Nc3ccc4ncccc4c3F)c12 [Example 24, (R)-5-((1-(dimethylamino)butan-2-yl)oxy)-N-(5-fluoroquinolin-6-yl)-7-(1-methyl-1H-pyrazol-4-yl)quinazolin-4-amine] | ≤ 10 | < 10 | < 10 |  |  |
| CN(C)CCOc1cc(-c2cnn(C)c2)cc2ncnc(Nc3ccc4ncccc4c3F)c12 [Example 34, 5-(2-(dimethylamino)ethoxy)-N-(5-fluoroquinolin-6-yl)-7-(1-methyl-1H-pyrazol-4-yl)quinazolin-4-amine] | 10.1 to 50 | 10.1 to 50 | < 10 |  |  |
| CN1CCC[C@H](Oc2cc(-c3cnn(C)c3)cc3ncnc(Nc4ccc5ncccc5c4F)c23)C1 [Example 35, (S)—N-(5-fluoroquinolin-6-yl)-7-(1-methyl-1H-pyrazol-4-yl)-5-((1-methylpiperidin-3-yl)oxy)quinazolin-4-amine] | ≤ 10 | < 10 | < 10 |  |  |
| CN1CCC[C@@H](Oc2cc(-c3cnn(C)c3)cc3ncnc(Nc4ccc5ncccc5c4F)c23)C1 [Example 36, (R)—N-(5-fluoroquinolin-6-yl)-7-(1-methyl-1H-pyrazol-4-yl)-5-((1-methylpiperidin-3-yl)oxy)quinazolin-4-amine] | 10.1 to 50 | 10.1 to 50 | < 10 |  |  |
| C[C@H](CN(C)C)Oc1cc(N2CC3(COC3)C2)cc2ncnc(Nc3c(F)cc4ncccc4c3F)c12 [Example 39, (R)—N-(5,7-difluoroquinolin-6-yl)-5-((1-(dimethylamino)propan-2-yl)oxy)-7-(2-oxa-6-azaspiro[3.3]heptan-6-yl)quinazolin-4-amine] | ≤ 10 | < 10 | < 10 |  |  |
| C[C@H](CN(C)C)Oc1cc(-c2cnn(C)c2)cc2ncnc(Nc3cnc4ncccc4c3)c12 [Example 40, (R)-5-((1-(dimethylamino)propan-2-yl)oxy)-7-(1-methyl-1H-pyrazol-4-yl)-N-(1,8-naphthyridin-3-yl)quinazolin-4-amine] | ≤ 10 | 10.1 to 50 | < 10 |  |  |
| C[C@H](CN(C)C)Oc1cc(-c2cnn(C)c2)cc2ncnc(Nc3ccc4nnccc4c3F)c12 [Example 41, (R)—N-(5-((1-(dimethylamino)propan-2-yl)oxy)-7-(1-methyl-1H-pyrazol-4-yl)quinazolin-4-yl)-5-fluorocinnolin-6-amine] | > 50.1 | > 50.1 | 10.1 to 50 |  |  |
| COc1cn(C)nc1-c1cc(O[C@H](C)CN(C)C)c2c(Nc3ccc4ncccc4c3F)ncnc2c1 [Example 45, (R)-5-((1-(dimethylamino)propan-2-yl)oxy)-N-(5-fluoroquinolin-6-yl)-7-(4-methoxy-1-methyl-1H-pyrazol-3-yl)quinazolin-4-amine] | ≤ 10 | < 10 | < 10 |  |  |
| C[C@@H](Oc1cc(-c2cnn(C)c2)cc2ncnc(Nc3ccc4ncccc4c3F)c12)C1COC1 [Example 46, (R)—N-(5-fluoroquinolin-6-yl)-7-(1-methyl-1H-pyrazol-4-yl)-5-(1-(oxetan-3-yl)ethoxy)quinazolin-4-amine] | ≤ 10 | < 10 | < 10 |  |  |
| C[C@@H](Oc1cc(-c2cnn(C(C)(C)CO)c2)cc2ncnc(Nc3ccc4ncccc4c3F)c12)C1COC1 [Example 47, (R)-2-(4-(4-(5-fluoroquinolin-6-ylamino)-5-(1-(oxetan-3-yl)ethoxy)quinazolin-7-yl)-1H-pyrazol-1-yl)-2-methylpropan-1-ol] | ≤ 10 | < 10 | < 10 |  |  |
| C[C@@H](Oc1cc(-c2cnn(CC(C)(C)O)c2)cc2ncnc(Nc3ccc4ncccc4c3F)c12)C1COC1 [Example 48, (R)-1-(4-(4-(5-fluoroquinolin-6-ylamino)-5-(1-(oxetan-3-yl)ethoxy)quinazolin-7-yl)-1H-pyrazol-1-yl)-2-methylpropan-2-ol] | ≤ 10 | < 10 | < 10 |  |  |

Now from value to compound:

| IC50 [1] [nM] | IC50 (EGFR L858R) [nM] | IC50 (EGFR (d746-750)) [nM] | IC50 (EGFR L858R; [2]) [nM] | IC50 (EGFR (d746-750); [2]) [nM] | Structure (SMILES) |
| --- | --- | --- | --- | --- | --- |
| ≤ 10 | < 10 | < 10 |  |  | C[C@@H](Oc1cc(-c2cnn(C)c2)cc2ncnc(Nc3ccc4ncc(F)cc4c3)c12)C1COC1 [Example 3, (R)—N-(3-fluoroquinolin-6-yl)-7-(1-methyl-1H-pyrazol-4-yl)-5-(1-(oxetan-3-yl)ethoxy)quinazolin-4-amine] |
| ≤ 10 | < 10 | < 10 |  |  | C[C@H](CN(C)C)Oc1cc(-c2cnn(C)c2)cc2ncnc(Nc3ccc4ncc(F)cc4c3)c12 [Example 7, (R)-5-((1-(dimethylamino)propan-2-yl)oxy)-N-(3-fluoroquinolin-6-yl)-7-(1-methyl-1H-pyrazol-4-yl)quinazolin-4-amine] |
| ≤ 10 | < 10 | < 10 |  |  | C[C@@H](Oc1cc(-c2cnn(C)c2)cc2ncnc(Nc3cc(F)c4ncccc4c3F)c12)C1COC1 [Example 9, (R)—N-(5,8-difluoroquinolin-6-yl)-7-(1-methyl-1H-pyrazol-4-yl)-5-(1-(oxetan-3-yl)ethoxy)quinazolin-4-amine] |
| > 50.1 | 10.1 to 50 | < 10 |  |  | CN(C)CC1(COc2cc(-c3cnn(C)c3)cc3ncnc(Nc4ccc5ncccc5c4F)c23)COC1 [Example 12, 5-((3-((dimethylamino)methyl)oxetan-3-yl)methoxy)-N-(5-fluoroquinolin-6-yl)-7-(1-methyl-1H-pyrazol-4-yl) quinazolin-4-amine] |
| ≤ 10 |  |  | < 10 | < 10 | C[C@H](Oc1cc(-c2cnn(C)c2)cc2ncnc(Nc3ccc4ncccc4c3F)c12)C1CCOCC1 [Example 20, (S)—N-(5-fluoroquinolin-6-yl)-7-(1-methyl-1H-pyrazol-4-yl)-5-(1-(tetrahydro-2H-pyran-4-yl)ethoxy)quinazolin-4-amine. or (R)—N-(5-fluoroquinolin-6-yl)-7-(1-methyl-1H-pyrazol-4-yl)-5-(1-(tetrahydro-2H-pyran-4-yl)ethoxy)quinazolin-4-amine] |
| 10.1 to 50 | 10.1 to 50 | < 10 |  |  | CN(C)C1(COc2cc(-c3cnn(C)c3)cc3ncnc(Nc4ccc5ncccc5c4F)c23)COC1 [Example 21, 5-((3-(dimethylamino)oxetan-3-yl)methoxy)-N-(5-fluoroquinolin-6-yl)-7-(1-methyl-1H-pyrazol-4-yl)quinazolin-4-amine] |
| 10.1 to 50 | < 10 | < 10 |  |  | CN1CC[C@H](Oc2cc(-c3cnn(C)c3)cc3ncnc(Nc4ccc5ncccc5c4F)c23)C1=O [Example 25, (S)-3-((4-((5-fluoroquinolin-6-yl)amino)-7-(1-methyl-1H-pyrazol-4-yl)quinazolin-5-yl)oxy)-1-methylpyrrolidin-2-one] |
| ≤ 10 | < 10 | < 10 |  |  | COC[C@@H](C)Oc1cc(-c2cnn(C)c2)cc2ncnc(Nc3ccc4ncccc4c3F)c12 [Example 31, (R)—N-(5-fluoroquinolin-6-yl)-5-((1-methoxypropan-2-yl)oxy)-7-(1-methyl-1H-pyrazol-4-yl)quinazolin-4-amine] |
